The structures appear in SMILES notation. Entries after “also recorded” stand apart in the source; their conditions may differ.

Series [1] concerns Slc25a46−/− mouse embryonic fibroblasts. Kind of series: MTT in-vitro cytotoxicity experiment (cell morphology and viability), Slc25a46−/− cells. The series is classed as cell-based. As to conditions: 24 hours; for effect on cell viability/growth (MTT): Slc25a46−/− cells. The procedure: (§1) The MEF cells were derived from wild-type fetal mice (WT) and Slc25a46 homozygous fetal mice (Slc25a46−/−). Pregnant mice were anesthetized and killed, and dissected to obtain mouse embryos, and bodies of fetal mice were obtained, and washed with PBS for 3 times. Clean mouse embryonal tissues were transferred into a culture dish, and cut into pieces, 2 mL of trypsin was added into the tissue pieces, and continuously cut into pieces for several minutes. Then, 5 mL of trypsin was added into the culture dish above, and blown up and down with a straw vigorously, and the culture dish was put into an incubator for incubation for 20 minutes to 30 minutes. The tissues cut into pieces were taken out of the incubator, and added with about 20 mL of MEF medium. A tissue mixture was transferred into each flask and placed into an incubator for overnight incubation. Then, growth of fibroblasts was observed regularly and the culture medium was replaced. When the fibroblasts covered 90% of the culture flask, the mouse embryonic fibroblasts were collected for subsequent experiment.
(§2) 100 uL of WT mouse cells and Slc25a46−/− mouse cells with a cell concentration of 3.5×10^5 cells/mL were inoculated into a 96-well plate, and cultured in a CO2 incubator at 37° C. for 24 hours. […] An absorbance at 570 nm was detected with a multi-functional microplate scanner, and effects of test solutions with different concentrations on cell viability were calculated with a blank control as 100%.

Series [2] relates to WT mouse embryonic fibroblasts. Briefly: MTT in-vitro cytotoxicity experiment (cell morphology and viability), WT cells. Format: cell-based. As to conditions: 24 hours; for effect on cell viability/growth (MTT): WT cells. The procedure: as §1, §2
Series [3] relates to Slc25a46−/− mice. Briefly: SOD enzyme activity in liver tissues after intragastric intervention. Format: in vivo, mouse. As to conditions: intragastric every day for 10 days, Example 400, Comparative example 1 100, 2 244, 3 56, 4 500 mg/kg. The procedure: Animal experimental subjects were Slc25a46 knockout (Slc25a46−/−) mice of 1 month old, which were divided into a blank solvent control group (3 mice) and experimental groups (4 mice in each group). Under a same SPF level, the mice were fed with a full-nutrient feed prepared according to an AIN93G formula of Jiangsu Xietong Biology Co., Ltd., and subjected to intragastric administration every day, which lasted for a period of 10 days. […] The blank solvent control group was administered intragastrically with solvent water. After the intragastric administration experiment, brain tissues and liver tissues of the mice were collected for physiological and biochemical detections respectively, and an oxidative stress level and an ability of delaying aging were analyzed.
9 times volume of ice normal saline was added according to a ratio of a tissue weight (g) to a tissue volume (ml) of 1:9, and the tissues were cut into pieces with a surgical scissor, prepared into 10% tissue homogenate with a homogenizer (the homogenation lasted 10 seconds once, and was continuously carried out for 3 times to 5 times at intervals of 5 seconds on ice), and centrifuged at 2500 rpm to 3000 rpm for 10 minutes. A supernatant was taken for subsequent determination. […]

For series [4], the system named is Slc25a46−/− mice. Briefly: NAMPT enzyme activity in liver tissues (ELISA kit). Format: in vivo, mouse. Conditions: intragastric every day for 10 days, Example 400, Comparative example 1 100, 2 244, 3 56, 4 500 mg/kg. Background: ELISA stands for enzyme-linked immunosorbent assay.
Method: A certain amount of liver tissues of the mice were homogenized, and a supernatant was taken. […] Marker wells, blank wells and sample wells were provided, 50 μL of markers with different concentrations were added into the marker wells, 50 μL of to-be-tested sample was added into the sample wells, and 50 μL of sample diluent was added into the blank wells. […] 50 μL of substrate A and 50 μL of substrate B were respectively added into each well, and an OD value of each well at a wavelength of 450 nm was measured within 15 minutes. Data was recorded, and statistical analysis was made with Prism software.
The mark [5] stands for this setting: high concentration (1,000 μg/mL to 2,000 μg/mL).

For `NC(=O)c1cccnc1` [Comparative example 4, nicotinamide], the “effect on cell morphology” value in series [1] (Slc25a46−/− MEF cells, up to 2,000 μg/mL) is given as “no effect on the cell morphology”; in series [2] (WT MEF cells, up to 2,000 μg/mL), “no effect on the cell morphology”. The “effect on cell viability/growth (MTT)” value in series [1] (125 μg/mL to 2,000 μg/mL) was “no effect on the viability of the Slc25a46−/− cells and a viability of the WT cells”; in series [1] (setting [5]) it was “promotes growth of the Slc25a46−/− cells and the WT cells, without a concentration effect”; in series [2] (125 μg/mL to 2,000 μg/mL), “no effect on the viability of the Slc25a46−/− cells and a viability of the WT cells”; in series [2] (setting [5]), “promotes growth of the Slc25a46−/− cells and the WT cells, without a concentration effect; also recorded: promote proliferation of the WT cells”. The “SOD enzyme activity-Liver tissue” value in the series on Slc25a46−/− mice [3] is listed as 2.22 ± 0.02 U/mgprot. In the series with Slc25a46−/− mice [4], the “NAMPT enzyme activity-Liver tissue” value is recorded as 0.32 ± 0.01 ng/mg protein.
